Measurements as given in BigSolDB 2.1.

CC(C)(C)C(=O)C(Oc1ccc(Cl)cc1)n1ccnc1 (centres undefined)
solubility (mole fraction)
Conditions	278.15 K	283.15 K	288.15 K	293.15 K	298.15 K	303.15 K	308.15 K	313.15 K	318.15 K
in ethanol	0.0801	0.0952	0.112	0.133	0.159	0.184	0.215	0.249	0.287
in n-butanol	0.0804	0.0957	0.112	0.132	0.156	0.18	0.209	0.243	0.282
in n-heptanol	0.0686	0.0797	0.0937	0.111	0.131	0.152	0.18	0.21	0.245
in n-hexanol	0.073	0.0858	0.0999	0.119	0.141	0.164	0.192	0.223	0.263
in n-pentanol	0.0781	0.0912	0.107	0.127	0.15	0.174	0.204	0.238	0.273
in n-propanol	0.0842	0.0998	0.117	0.139	0.165	0.19	0.22	0.254	0.29
